Reference: PubChem BioAssay (NCI)
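Where inhibition never reached the appropriate level, the endpoint shown equals the highest concentration tested. Otherwise, values were interpolated linearly from a five-concentration, 48-hour dose response in 96-well plates. At the GI50, growth is halved. TGI: total growth inhibition.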

Key:
Assay in all cases: NCI tumour cell line growth inhibition, 48 h
786-0 renal = test system: 786-0 renal
A549 NSCLC = test system: A549 NSCLC
ACHN renal = test system: ACHN renal
COLO 205 colon = test system: COLO 205 colon
DU-145 prostate = test system: DU-145 prostate
EKVX NSCLC = test system: EKVX NSCLC
HCT-116 colon = test system: HCT-116 colon
HCT-15 colon = test system: HCT-15 colon
HOP-62 NSCLC = test system: HOP-62 NSCLC
HOP-92 NSCLC = test system: HOP-92 NSCLC
HS 578T breast = test system: HS 578T breast
HT29 colon = test system: HT29 colon
IGROV1 ovarian = test system: IGROV1 ovarian
LOX IMVI melanoma = test system: LOX IMVI melanoma
M14 melanoma = test system: M14 melanoma
MALME-3M melanoma = test system: MALME-3M melanoma
MDA-MB-231 breast = test system: MDA-MB-231 breast
MDA-N = test system: MDA-N
MOLT-4 leukemia = test system: MOLT-4 leukemia
NCI-H460 lung = test system: NCI-H460 lung
NCI-H522 lung = test system: NCI-H522 lung
NCI/ADR-RES ovarian = test system: NCI/ADR-RES ovarian
OVCAR-3 ovarian = test system: OVCAR-3 ovarian
OVCAR-8 ovarian = test system: OVCAR-8 ovarian
PC-3 prostate = test system: PC-3 prostate
SF-268 CNS = test system: SF-268 CNS
SF-295 CNS = test system: SF-295 CNS
SK-MEL-2 melanoma = test system: SK-MEL-2 melanoma
SK-MEL-5 melanoma = test system: SK-MEL-5 melanoma
SK-OV-3 ovarian = test system: SK-OV-3 ovarian
SN12C renal = test system: SN12C renal
SNB-75 CNS = test system: SNB-75 CNS
SR leukemia = test system: SR leukemia
SW-620 colon = test system: SW-620 colon
UACC-257 melanoma = test system: UACC-257 melanoma
UACC-62 melanoma = test system: UACC-62 melanoma
A498 renal = test system: A498 renal
BT-549 breast = test system: BT-549 breast
CAKI-1 renal = test system: CAKI-1 renal
CCRF-CEM leukemia = test system: CCRF-CEM leukemia
HCC-2998 colon = test system: HCC-2998 colon
HL-60(TB) leukemia = test system: HL-60(TB) leukemia
K-562 leukemia = test system: K-562 leukemia
KM12 colon = test system: KM12 colon
MCF7 breast = test system: MCF7 breast
MDA-MB-435 = test system: MDA-MB-435
NCI-H226 lung = test system: NCI-H226 lung
NCI-H23 lung = test system: NCI-H23 lung
OVCAR-4 ovarian = test system: OVCAR-4 ovarian
OVCAR-5 ovarian = test system: OVCAR-5 ovarian
RPMI-8226 leukemia = test system: RPMI-8226 leukemia
RXF 393 renal = test system: RXF 393 renal
SF-539 CNS = test system: SF-539 CNS
SK-MEL-28 melanoma = test system: SK-MEL-28 melanoma
SNB-19 CNS = test system: SNB-19 CNS
T-47D breast = test system: T-47D breast
TK-10 renal = test system: TK-10 renal
U251 CNS = test system: U251 CNS
UO-31 renal = test system: UO-31 renal

`CC(C)(C)[Si](C)(C)OCC1OC(n2cc(I)c(N)nc2=O)C(O[Si](C)(C)C(C)(C)C)C1O[Si](C)(C)C(C)(C)C` (stereo unspecified) was tested, and the TGI (786-0 renal) was 9.09 µM, the TGI (A549 NSCLC) was 20.8 µM and the TGI (ACHN renal) was 22 µM. For the same compound, the TGI (COLO 205 colon) was 36.3 µM, the TGI (DU-145 prostate) was 28.6 µM and the TGI (EKVX NSCLC) was 38.4 µM. For the same compound, the TGI (HCT-116 colon) was 24 µM, the TGI (HCT-15 colon) was 39.9 µM and the TGI (HOP-62 NSCLC) was 27.6 µM. For the same compound, the TGI (HOP-92 NSCLC) was 37.1 µM, the TGI (HS 578T breast) was 36.6 µM and the TGI (HT29 colon) was 20.3 µM. The TGI (IGROV1 ovarian) was 20.6 µM, the TGI (LOX IMVI melanoma) was > 100 µM and the TGI (M14 melanoma) was 16.9 µM. The TGI (MALME-3M melanoma) was 34.6 µM, the TGI (MDA-MB-231 breast) was 31.7 µM and the TGI (MDA-N) was 26.9 µM. It also gave a TGI (MOLT-4 leukemia) of 10.6 µM, a TGI (NCI-H460 lung) of 22 µM and a TGI (NCI-H522 lung) of 16.5 µM. For the same compound, the TGI (NCI/ADR-RES ovarian) was > 100 µM, the TGI (OVCAR-3 ovarian) was 24 µM and the TGI (OVCAR-8 ovarian) was 30.6 µM. The TGI (PC-3 prostate) was 25 µM, the TGI (SF-268 CNS) was 28.8 µM and the TGI (SF-295 CNS) was 11.2 µM. The TGI (SK-MEL-2 melanoma) was 25.7 µM, the TGI (SK-MEL-5 melanoma) was 23.2 µM and the TGI (SK-OV-3 ovarian) was 32.8 µM. It also gave a TGI (SN12C renal) of 26.6 µM, a TGI (SNB-75 CNS) of 28 µM and a TGI (SR leukemia) of 81.7 µM. The TGI (SW-620 colon) was > 100 µM, the TGI (UACC-257 melanoma) was 26.7 µM and the TGI (UACC-62 melanoma) was 23.7 µM.

Work on `O=C(/C=C\n1cnc(-c2cc(C(F)(F)F)cc(C(F)(F)F)c2)n1)NNc1cnccn1` yielded a GI50 (786-0 renal) of 0.0781 µM, a TGI (786-0 renal) of 13.9 µM and a GI50 (A498 renal) of 0.0216 µM. It also gave a TGI (A498 renal) of 0.338 µM, a GI50 (A549 NSCLC) of 0.0785 µM and a TGI (A549 NSCLC) of 19 µM. It also gave a GI50 (ACHN renal) of 0.113 µM, a TGI (ACHN renal) of 13 µM and a GI50 (BT-549 breast) of 0.0385 µM. It also gave a TGI (BT-549 breast) of 2.82 µM, a GI50 (CAKI-1 renal) of 0.0414 µM and a TGI (CAKI-1 renal) of 12 µM. The GI50 (CCRF-CEM leukemia) was 0.106 µM, the TGI (CCRF-CEM leukemia) was > 100 µM and the GI50 (COLO 205 colon) was 0.0515 µM. The TGI (COLO 205 colon) was 5.28 µM, the GI50 (DU-145 prostate) was 0.271 µM and the TGI (DU-145 prostate) was 12.6 µM. It also gave a GI50 (EKVX NSCLC) of 0.0853 µM, a TGI (EKVX NSCLC) of 14.5 µM and a GI50 (HCC-2998 colon) of 0.112 µM. It also gave a TGI (HCC-2998 colon) of 1.93 µM, a GI50 (HCT-116 colon) of 0.0821 µM and a TGI (HCT-116 colon) of 12.4 µM. The GI50 (HCT-15 colon) was 0.098 µM, the TGI (HCT-15 colon) was 13.4 µM and the GI50 (HL-60(TB) leukemia) was 0.0467 µM. The GI50 (HOP-62 NSCLC) was 0.289 µM, the TGI (HOP-62 NSCLC) was 15.7 µM and the GI50 (HOP-92 NSCLC) was 0.094 µM. For the same compound, the TGI (HOP-92 NSCLC) was 9.21 µM, the GI50 (HS 578T breast) was 0.231 µM and the TGI (HS 578T breast) was 25.7 µM. It also gave a GI50 (HT29 colon) of 0.131 µM, a TGI (HT29 colon) of 22.4 µM and a GI50 (IGROV1 ovarian) of 0.223 µM. For the same compound, the TGI (IGROV1 ovarian) was 14.8 µM, the GI50 (K-562 leukemia) was 0.0594 µM and the TGI (K-562 leukemia) was > 38.3 µM. For the same compound, the GI50 (KM12 colon) was 0.492 µM, the TGI (KM12 colon) was 17 µM and the GI50 (LOX IMVI melanoma) was 0.0446 µM. For the same compound, the TGI (LOX IMVI melanoma) was 1.5 µM, the GI50 (M14 melanoma) was 0.311 µM and the TGI (M14 melanoma) was 9.04 µM. For the same compound, the GI50 (MALME-3M melanoma) was 0.135 µM, the TGI (MALME-3M melanoma) was 10.5 µM and the GI50 (MCF7 breast) was 0.0329 µM. It also gave a TGI (MCF7 breast) of 11.5 µM, a GI50 (MDA-MB-231 breast) of 0.0577 µM and a TGI (MDA-MB-231 breast) of 14.8 µM. For the same compound, the GI50 (MDA-MB-435) was 0.0533 µM, the TGI (MDA-MB-435) was 1.24 µM and the GI50 (MOLT-4 leukemia) was 0.0312 µM. The TGI (MOLT-4 leukemia) was > 100 µM, the GI50 (NCI-H226 lung) was 0.0384 µM and the TGI (NCI-H226 lung) was 3.05 µM. For the same compound, the GI50 (NCI-H23 lung) was 0.0661 µM, the TGI (NCI-H23 lung) was 15.7 µM and the GI50 (NCI-H460 lung) was 0.037 µM. For the same compound, the TGI (NCI-H460 lung) was 3.14 µM, the GI50 (NCI-H522 lung) was 0.128 µM and the TGI (NCI-H522 lung) was 6.42 µM. For the same compound, the GI50 (NCI/ADR-RES ovarian) was 0.0933 µM, the TGI (NCI/ADR-RES ovarian) was 27.1 µM and the GI50 (OVCAR-3 ovarian) was 0.0574 µM. For the same compound, the TGI (OVCAR-3 ovarian) was 4.03 µM, the GI50 (OVCAR-4 ovarian) was 0.0364 µM and the TGI (OVCAR-4 ovarian) was 14 µM. For the same compound, the GI50 (OVCAR-5 ovarian) was 0.189 µM, the TGI (OVCAR-5 ovarian) was 16.3 µM and the GI50 (OVCAR-8 ovarian) was 0.0769 µM. It also gave a TGI (OVCAR-8 ovarian) of 36.5 µM, a GI50 (PC-3 prostate) of 0.128 µM and a TGI (PC-3 prostate) of 15.7 µM. For the same compound, the GI50 (RPMI-8226 leukemia) was 0.0449 µM, the TGI (RPMI-8226 leukemia) was > 47.3 µM and the GI50 (RXF 393 renal) was 0.028 µM. For the same compound, the TGI (RXF 393 renal) was 0.225 µM, the GI50 (SF-268 CNS) was 0.0577 µM and the TGI (SF-268 CNS) was 10.6 µM. For the same compound, the GI50 (SF-295 CNS) was 0.0534 µM, the TGI (SF-295 CNS) was 11.2 µM and the GI50 (SF-539 CNS) was 0.0286 µM. For the same compound, the TGI (SF-539 CNS) was 1.12 µM, the GI50 (SK-MEL-2 melanoma) was 0.0729 µM and the TGI (SK-MEL-2 melanoma) was 2.84 µM. The GI50 (SK-MEL-28 melanoma) was 0.0672 µM, the TGI (SK-MEL-28 melanoma) was 11 µM and the GI50 (SK-MEL-5 melanoma) was 0.151 µM. It also gave a TGI (SK-MEL-5 melanoma) of 2.22 µM, a GI50 (SK-OV-3 ovarian) of 0.643 µM and a TGI (SK-OV-3 ovarian) of 25.3 µM. For the same compound, the GI50 (SN12C renal) was 0.356 µM, the TGI (SN12C renal) was 15.4 µM and the GI50 (SNB-19 CNS) was 0.142 µM. For the same compound, the TGI (SNB-19 CNS) was 13.4 µM, the GI50 (SNB-75 CNS) was 0.118 µM and the TGI (SNB-75 CNS) was 1.97 µM. For the same compound, the GI50 (SR leukemia) was 0.0362 µM, the TGI (SR leukemia) was > 100 µM and the GI50 (SW-620 colon) was 0.0472 µM. The TGI (SW-620 colon) was 13.3 µM, the GI50 (T-47D breast) was 0.143 µM and the TGI (T-47D breast) was 15.7 µM. It also gave a GI50 (TK-10 renal) of 0.466 µM, a TGI (TK-10 renal) of 16.5 µM and a GI50 (U251 CNS) of 0.0511 µM. For the same compound, the TGI (U251 CNS) was 12.4 µM, the GI50 (UACC-257 melanoma) was 0.188 µM and the TGI (UACC-257 melanoma) was 16.6 µM. For the same compound, the GI50 (UACC-62 melanoma) was 0.232 µM, the TGI (UACC-62 melanoma) was 6.83 µM and the GI50 (UO-31 renal) was 0.12 µM. For the same compound, the TGI (UO-31 renal) was 12.8 µM.
